Measurements from US20160280651A1, “COMPOUNDS THAT INDUCE ABA RESPONSES” (THE REGENTS OF THE UNIVERSITY OF CALIFORNIA, priority 2013, published 2016).

Experiments:
[1] = tested on: ABI1 with PYR/PYL receptors; test: Receptor-mediated PP2C inhibition assay with ABI1, Example 1; format: biochemical, Arabidopsis; conditions: 10 μM; receptors PYR1, PYL1, PYL2, PYL3 and PYL5
Procedure: FIG. 2A-FIG. 2C. Novel ABA agonists inhibit PPC2 activity through multiple PYR/PYL. (A) Chemical structure of naturally occurring (+)-ABA and selected ABA agonists. (B) and (C) HAB1, ABU, and ABI2 PP2C enzyme activity based ABA-agonist assays for various receptors in the presence or absence of 10 μM each test chemical.
HAB1 and PYL proteins were expressed and purified as described previously (Park S Y, et al. (2009) Abscisic Acid Inhibits Type 2C Protein Phosphatases via the PYR/PYL Family of START Proteins. Science 324(5930):1068-1071), with minor modifications. To obtain GST-HAB1, -ABI1 and -ABI2 fusion proteins, the HAB1 cDNA was cloned into pGex-2T whereas ABI1 and ABI2 cDNAs were cloned into the vector pGex-4T-1. […] After 16 hours incubation at 15° C., cells were harvested and recombinant proteins were purified on glutathione agarose as described previously (Park S Y, et al. (2009). To obtain 6×His-PYL receptor fusion proteins, receptor cDNAs for all 13 ABA receptors were cloned into the vector pET28 and expressed and purified as described previously (Mosquna A, et al. (2011) Potent and selective activation of abscisic acid receptors in vivo by mutational stabilization of their agonist-bound conformation. PNAS 108(51):20838-20843); this yielded soluble and functional protein (assessed using receptor-mediated PP2C inhibition assays) for all receptors except PYL7, PYL11 and PYL12. […]

ABA-responsive genes = test: ABA-responsive gene expression in moss; format: in vivo, Physcomitrella patens; conditions: 200 μM for 3 h
Procedure: FIG. 17A-FIG. 17D. The effect of ABA and its agonists in Physcomitrella patens and Chlamydomonas. Protonemal growth images (A) and quantitative analysis (B) of the effects of ABA and agonists on Phsycomitrella patens. Protonema were grown on 200 μM of specific test chemical for 10 days. […] Pyrabactin bleached protonema. (C) The expression of ABA-responsive genes of Physcomitrella patens. Protonema were treated with 200 μM chemical solutions for 3 h. (D) Colony growth of Chlamydomonas on the chemical with salinity stress and osmotic stress. There was no effect of ABA and LC66C6 on the Chlamydomonas growth with and without stresses.

Arabidopsis plants [2] = test: Stomatal aperture measurement; format: in vivo; conditions: wild-type, aba2 and abi1-1; 25 μM spray
Procedure: Physiological assays were performed on Arabidopsis plants grown at 22±2° C. and relative humidity (RH) 45±10% under a 16/8-h light/dark cycle. For transpirational water loss analyses in Arabidopsis, plants were pre-treated by aerosol spray of 4 ml solution containing 25 μM compound and 0.05% Tween-20. 12 4-week old plants were sprayed per compound or control analyzed. After overnight pre-treatment with compounds, the aerial portions were detached from roots, and their fresh weight measured at 20 min intervals over a 2 hour time period. To measure stomatal aperture, plants were pre-treated with compounds as described above, covered with plastic lids to maintain high RH and after overnight pre-treatment leaf epidermal impressions were obtained using Suzuki's Universal Micro-Printing (SUMP) method using SUMP impression solution with SUMP B plates (SUMP Laboratory). The leaf impressions were analyzed by light microscopy and stomatal apertures were determined from the pore widths using ImageJ 1.43v software (National Institutes of Health, USA). […] Pots were covered in Parafilm to so that the water loss measured was transpiration mediated. Soil water content % was determined by measuring pot weight and computed by removing dry soil weight from total weight.

Arabidopsis plants [3] = test: Arabidopsis drought stress assay; format: in vivo; conditions: 25 μM, aerosol every 3 days
Procedure: FIG. 8A-FIG. 8B. Quinabactin confers drought stress tolerance to wild-type plants. (A) Effect of quinabactin on Arabidopsis drought tolerance. Two-week-old plants were subjected to drought stress by withholding water and were photographed after 12 days. During the drought period, plants were treated every 3 days with 25 μM compound. Plants were re-hydrated after 2 weeks drought treatment; the number of surviving plants (out of total number tested) for each treatment is shown next to each image. (B) Effects of quinabactin on soybean. Two-week-old plants were subjected to drought stress by withholding water and photographed after 8 days drought treatment. […]
Physiological assays were performed on Arabidopsis plants grown at 22±2° C. and relative humidity (RH) 45±10% under a 16/8-h light/dark cycle. […] 12 4-week old plants were sprayed per compound or control analyzed. After overnight pre-treatment with compounds, the aerial portions were detached from roots, and their fresh weight measured at 20 min intervals over a 2 hour time period. […] The leaf impressions were analyzed by light microscopy and stomatal apertures were determined from the pore widths using ImageJ 1.43v software (National Institutes of Health, USA). […] Pots were covered in Parafilm to so that the water loss measured was transpiration mediated. […]

Compound: CCCN1C(=O)CCc2cc(NS(=O)(=O)Cc3ccc(C)cc3)ccc21 [LC66C6]
- PP2C inhibition of ABI1 [1]: > 70%
- Expression of ABA-responsive genes in moss (ABA-responsive genes): can induce the expression of ABA-responsive genes in moss
- Stomatal closure (Arabidopsis plants [2]): induces stomatal closure in wild-type and the aba2 mutant, but not in the abi1-1 mutant
- Drought stress tolerance (Arabidopsis plants [3]): confers drought stress tolerance in Arabidopsis plants similar to that conferred by treatment with (+)-ABA
